Assay results reported in publication PMC5192466, “Kunitz-Type Peptide HCRG21 from the Sea Anemone Heteractis crispa Is a Full Antagonist of the TRPV1 Receptor” (Marine Drugs, 2016).
“Also recorded” adds a separate entry of the source. Bridges are numbered along the chain shown (N, C = ends). Where no end group is shown, it is not given here.

Key:
rKv1.5 = assay: Kv1.5 currents, two-electrode voltage-clamp in Xenopus laevis oocytes; format: cell-based; conditions: 10 μM peptide, n ≥ 3; holding −90 mV, 500 ms to 0 mV; ND96 pH 7.4
Procedure: (§1) In order to characterize HCRG21 functionally, recombinant HCRG21 was, at a concentration of 10 μM, tested for its activity against an 8 voltage-gated potassium channels (Kv1.1–Kv1.6, hERG, and Shaker IR) and the vanilloid receptor 1 (TRPV1).
(§2) Figure 4 Activity of rHCRG21 on Kv channels expressed in X. laevis oocytes. Traces shown are representative of at least three independent experiments (n ≥ 3). The dotted line indicates the zero current level. The asterisk (*) distinguishes the steady-state current after application of 10 μM peptide.
(§3) For the expression of rKv1.1, hKv1.3, rKv1.4, rKv1.5, rKv1.6, Shaker IR, hERG, and TRPV1 in Xenopus oocytes, the linearized plasmids were transcribed using the T7 or SP6 mMESSAGE-mMACHINE transcription kit (Ambion, Austin, TX, USA). The harvesting of stage V–VI oocytes from anaesthetized female Xenopus laevis frog was previously described. […]
(§4) Two-electrode voltage-clamp recordings were performed at room temperature (18–22 °C) using a Geneclamp 500 amplifier (Molecular Devices, Sunnyvale, CA, USA) controlled by a pClamp data acquisition system (Axon Instruments, Foster City, CA, USA). Whole cell currents from oocytes were recorded 1–4 days after injection. […] TRPV1 currents were measured in ND96 solution using a protocol of −90 mV during 400 s. […]

rKv1.6 = assay: Kv1.6 currents, two-electrode voltage-clamp in Xenopus laevis oocytes; format: cell-based; conditions: 10 μM peptide, n ≥ 3; holding −90 mV, 500 ms to 0 mV; ND96 pH 7.4
Procedure: as §1, §2, §3, §4

α-chymotrypsin = α-chymotrypsin (Bos taurus, UniProt P00766); assay: α-Chymotrypsin inhibition (Dixon method, BTEE substrate); format: biochemical; conditions: 133 and 65 mM, enzyme 215 nM, peptide 0 up to 3.2 mM, three parallel experiments
Procedure: (§5) The trypsin/α-chymotrypsin inhibitory activity of the peptide was tested through the standard procedure using N-α-benzoyl-D,L-arginine p-nitroanilide hydrochloride (BAPNA) and ethyl ester of N-benzoyl-L-tyrosine (BTEE) as a substrates, respectively. Determination of the trypsin/α-chymotrypsin inhibition constants of rHCRG21 was performed according to the method of Dixon using substrates concentrations of 133 and 65 mM. The concentration of both enzymes in the reaction mixture was 215 nM. Concentrations of the tested peptide ranged from 0 up to 3.2 mM. The constants were calculated based on the results of three parallel experiments. Computational error limits are in the range of 0.1%–0.5%.

rKv1.1 = assay: Kv1.1 currents, two-electrode voltage-clamp in Xenopus laevis oocytes; format: cell-based; conditions: 10 μM peptide, n ≥ 3; holding −90 mV, 500 ms to 0 mV; ND96 pH 7.4
Procedure: as §1, §2, §3, §4

hERG = hERG currents, two-electrode voltage-clamp in Xenopus laevis oocytes; format: cell-based; conditions: 10 μM peptide, n ≥ 3; +40 mV prepulse 2 s, then −120 mV 2 s; ND96 pH 7.4
Procedure: as §1, §2, §3, §4

trypsin = assay: Trypsin inhibition (Dixon method, BAPNA substrate); format: biochemical
Procedure: as §5

hKv1.3 = assay: Kv1.3 currents, two-electrode voltage-clamp in Xenopus laevis oocytes; format: cell-based; conditions: 10 μM peptide, n ≥ 3; holding −90 mV, 500 ms to 0 mV; ND96 pH 7.4
Procedure: as §1, §2, §3, §4

Kv1.2 = Kv1.2 currents, two-electrode voltage-clamp in Xenopus laevis oocytes; format: cell-based; conditions: 10 μM peptide, n ≥ 3; holding −90 mV, 500 ms to 0 mV; ND96 pH 7.4
Procedure: as §1, §2
Two-electrode voltage-clamp recordings were performed at room temperature (18–22 °C) using a Geneclamp 500 amplifier (Molecular Devices, Sunnyvale, CA, USA) controlled by a pClamp data acquisition system (Axon Instruments, Foster City, CA, USA). Whole cell currents from oocytes were recorded 1–4 days after injection. Bath solution composition was ND96 (in mM): NaCl, 96; KCl, 2; CaCl2, 1.8; MgCl2, 2, and HEPES, 5 (pH 7.4). Voltage and current electrodes were filled with 3 M KCl. Resistances of both electrodes were kept between 0.8 and 1.5 MΩ. The elicited currents were filtered and sampled at, respectively, 1 kHz and 10 kHz (for potassium currents) and at, respectively, 0.2 kHz and 0.5 kHz (for TRPV1 currents), using a four-pole low-pass Bessel filter. […] TRPV1 currents were measured in ND96 solution using a protocol of −90 mV during 400 s. […]

TRPV1 = biological target: T1, TRPV1 (Rattus norvegicus, UniProt O35433); assay: cell-based
T1 construct: expressed in transfected cells; host or cells: Xenopus laevis oocytes injected with cRNA
Procedure: To control the expression level of the TRPV1 channels, experiments were initiated with a first activation of TRPV1 with 1 μM capsaicin (CAP). […] This activation gives an inward non-selective cation current. […] Before application of HCRG21, cells are washed with ND96 to remove any presence of […]. […] However, when rHCRG21 was co-applied together with the agonist capsaicin, a reduction of the current was observed (Figure 5b). […] A concentration–response curve was constructed in order to assess the concentration dependence of the rHCRG21 induced effect. The IC50 value yielded 6.9 ± 0.4 μM (Figure 5c).
Figure 5 Activity profile of rHCRG21 (10 μM) on the TRPV1 receptor. The figures show the results of one representative experiment. Whole-cell current traces in control and rHCRG21 conditions are shown. […] All data represent the average of at least three independent experiments (n ≥ 3) and are presented as mean ± standard error; (c) Concentration–response curve for rHCRG21 on TRPV1 receptor.
For the expression of rKv1.1, hKv1.3, rKv1.4, rKv1.5, rKv1.6, Shaker IR, hERG, and TRPV1 in Xenopus oocytes, the linearized plasmids were transcribed using the T7 or SP6 mMESSAGE-mMACHINE transcription kit (Ambion, Austin, TX, USA). The harvesting of stage V–VI oocytes from anaesthetized female Xenopus laevis frog was previously described. Oocytes were injected with 50 nL of cRNA at a concentration of 1 ng/nL using a micro-injector (Drummond Scientific, Broomall, PA, USA). The oocytes were incubated in a solution containing (in mM): NaCl, 96; KCl, 2; CaCl2, 1.8; MgCl2, 2 and HEPES, 5 (pH 7.4), supplemented with 50 mg/L gentamicin sulfate.
Two-electrode voltage-clamp recordings were performed at room temperature (18–22 °C) using a Geneclamp 500 amplifier (Molecular Devices, Sunnyvale, CA, USA) controlled by a pClamp data acquisition system (Axon Instruments, Foster City, CA, USA). Whole cell currents from oocytes were recorded 1–4 days after injection. Bath solution composition was ND96 (in mM): NaCl, 96; KCl, 2; CaCl2, 1.8; MgCl2, 2, and HEPES, 5 (pH 7.4). Voltage and current electrodes were filled with 3 M KCl. Resistances of both electrodes were kept between 0.8 and 1.5 MΩ. The elicited currents were filtered and sampled at, respectively, 1 kHz and 10 kHz (for potassium currents) and at, respectively, 0.2 kHz and 0.5 kHz (for TRPV1 currents), using a four-pole low-pass Bessel filter. Leak subtraction was performed using a –P/4 protocol. KV1.1–KV1.6 and Shaker currents were evoked by 500 ms depolarizations to 0 mV followed by a 500 ms pulse to −50 mV, from a holding potential of −90 mV. Current traces of hERG channels were elicited by applying a +40 mV prepulse for 2 s followed by a step to −120 mV for 2 s. TRPV1 currents were measured in ND96 solution using a protocol of −90 mV during 400 s. The recording chamber was perfused at a rate of 2 mL·min^−1 with a ND96 solution. As previously described, capsaicin (2 μM) was used as an agonist and capsazepine (10 μM) as an antagonist of TRPV1. Capsaicin and capsazepine were purchased from Sigma. All data represent at least 3 independent experiments (n ≥ 3) in which independent experiments represent experiments on different cells expressing TRPV1 channel and are presented as mean ± standard error.

Shaker IR = Shaker IR currents, two-electrode voltage-clamp in Xenopus laevis oocytes; format: cell-based; conditions: 10 μM peptide, n ≥ 3; holding −90 mV, 500 ms to 0 mV; ND96 pH 7.4
Procedure: as §1, §2, §3, §4

rKv1.4 = assay: Kv1.4 currents, two-electrode voltage-clamp in Xenopus laevis oocytes; format: cell-based; conditions: 10 μM peptide, n ≥ 3; holding −90 mV, 500 ms to 0 mV; ND96 pH 7.4
Procedure: as §1, §2, §3, §4

T1 sequence (O35433 whole entry): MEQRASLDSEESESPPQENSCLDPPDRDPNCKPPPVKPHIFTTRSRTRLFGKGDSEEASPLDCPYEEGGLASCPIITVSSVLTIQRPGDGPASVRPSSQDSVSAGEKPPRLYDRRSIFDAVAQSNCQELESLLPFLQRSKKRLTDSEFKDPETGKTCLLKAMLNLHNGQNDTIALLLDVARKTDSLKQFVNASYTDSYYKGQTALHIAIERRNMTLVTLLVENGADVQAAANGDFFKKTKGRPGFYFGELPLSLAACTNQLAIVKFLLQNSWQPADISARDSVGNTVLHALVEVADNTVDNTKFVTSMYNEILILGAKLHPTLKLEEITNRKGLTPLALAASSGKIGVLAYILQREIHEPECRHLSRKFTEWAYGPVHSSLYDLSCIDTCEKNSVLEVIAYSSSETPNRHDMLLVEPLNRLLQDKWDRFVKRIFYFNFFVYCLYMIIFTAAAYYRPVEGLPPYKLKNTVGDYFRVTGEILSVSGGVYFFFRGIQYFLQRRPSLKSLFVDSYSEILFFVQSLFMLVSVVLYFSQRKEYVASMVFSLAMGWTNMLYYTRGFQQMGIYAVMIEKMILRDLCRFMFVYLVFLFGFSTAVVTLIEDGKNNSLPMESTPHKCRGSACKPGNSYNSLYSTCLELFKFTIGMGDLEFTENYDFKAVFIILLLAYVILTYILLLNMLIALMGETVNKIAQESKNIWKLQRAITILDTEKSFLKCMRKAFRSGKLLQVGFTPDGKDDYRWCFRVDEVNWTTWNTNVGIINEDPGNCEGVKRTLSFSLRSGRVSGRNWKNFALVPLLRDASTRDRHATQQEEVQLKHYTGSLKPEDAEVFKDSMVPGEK

RGICSEPKVVGPCTAYFRRFYFDSETGKCTPFIYGGCEGNGNNFETLRACRAICRA (disulfide 4-54, 13-37, 29-50 (inferred)) [rHCRG21]
activity on Kv1.5 (rKv1.5): did not exert any activity | activity on Kv1.6 (rKv1.6): did not exert any activity | Ki (α-chymotrypsin): 700 nM | activity on Kv1.1 (rKv1.1): did not exert any activity | activity on hERG (hERG): did not exert any activity | Ki (trypsin; Dixon method, BAPNA substrate, 133 and 65 mM, enzyme 215 nM, peptide 0 up to 3.2 mM, three parallel experiments): 200 nM | Trypsin inhibitory activity of HPLC fraction (trypsin; fraction marked rHCRG21 after RP-HPLC): Trypsin inhibitory activity was detected | activity on Kv1.3 (hKv1.3): did not exert any activity | activity on Kv1.2 (Kv1.2): did not exert any activity | inhibition of capsaicin-induced TRPV1 current (TRPV1; 10 μM peptide co-applied with capsaicin (2 μM), −90 mV, ND96 pH 7.4, mean ± standard error, n ≥ 3): 59.3% ± 4.3% | effect on TRPV1 when administered alone (TRPV1; 10 μM, in the absence of capsaicin): did not show any significant effect; also recorded: Lack of effect | effect on TRPV1 when applied prior to capsaicin (TRPV1; applied prior to any stimulation of capsaicin, data not shown): no activity was seen | IC50 (TRPV1; co-applied with capsaicin (2 μM), −90 mV, ND96 pH 7.4, 18–22 °C, mean ± standard error, n ≥ 3, read-out: IC50, inhibition of capsaicin-induced TRPV1 current): 6900 ± 400 nM | effect on TRPV1 channel (conclusion) (TRPV1; electrophysiological data): strongly inhibits the TRPV1 channel | activity on Shaker IR (Shaker IR): did not exert any activity | activity on Kv1.4 (rKv1.4): did not exert any activity
